Among the data in patent US20250214977A1, “STAT6 INHIBITORS AND USES THEREOF” (Kymera Therapeutics, Inc., priority 2024, published 2025) are IC50 values, retold here.

Some results are limits rather than exact numbers.

The test system of the assay is Phosphorylation of STAT6 in human A549 cells. Put plainly: Phosphorylated STAT6 (pSTAT6) flow cytometry assay in human A549 cells. The class given is cell-based. The following applies: read-out: STAT6 IL4 pSTAT6 assay in A549 cells: Average IC50. The source says: Example 3. Phosphorylated STAT6 (pSTAT6) Flow Cytometry Assay in Human A549 Cells
Phosphorylation of STAT6 in human A549 cells was quantitatively measured using flow cytometry technology.

For `COc1cc(F)cnc1N1CCN(C(=O)c2cc3c(-c4cccc(C5CC5)c4)cc(C4=CCCN(C(=O)CCn5ccnn5)C4)c(F)c3[nH]2)CC1` [Example I-674], the IC50 lay within 100 to 1000 nM.

In the case of `COc1ccccc1-c1cc(C2=CCCN(C(=O)CCn3ccnn3)C2)c(F)c2[nH]c(C(=O)N3CCN(c4ncc(F)c(F)c4OC)CC3)cc12` [Example I-510], the half-maximal inhibitory concentration (IC50) was below 100 nM.

As for `CCc1nc(C)ccc1-c1cc(C(=O)N2CCN(c3ccc(F)cc3OC)CC2)cc2cc(C3=CCCN(C(=O)CCn4ccnn4)C3)n(CC3CC3)c12` [Example I-534], the 50% inhibitory concentration (IC50) was above 100000 nM.

Take `CCc1ccncc1-c1cc(C2=CCCN(C(C)=O)C2)c(F)c2[nH]c(C(=O)N3CCN(c4ncccc4OC)CC3)cc12` [Example I-619]: the concentration for half-maximal inhibition (IC50) was in the range of 100 to 1000 nM.

Turning to `CN(C)C(=O)c1cc2c(F)c(C3=CCCN(C(=O)C4Cc5ccccc5CN4C=O)C3)ccc2o1` (stereo not shown) [Example I-374, 4-fluoro-5-(1-(2-formyl-1,2,3,4-tetrahydroisoquinoline-3-carbonyl)-1,2,5,6-tetrahydropyridin-3-yl)-N,N-dimethylbenzofuran-2-carboxamide], the IC50 was below 100 nM.

As to `COc1cccnc1C1=CCN(C(=O)c2cc3c(-c4cnc5ccccc5c4OC)cc(C4=CCCN(C(=O)CCn5ccnn5)C4)c(F)c3[nH]2)CC1` [Example I-451], the IC50 was below 100 nM.

For `COc1ccccc1-c1cc(C2=CCCN(C(=O)CCn3cccn3)C2)c(F)c2[nH]c(C(=O)N3CCN(c4cc5cc[nH]c5nc4C#N)CC3)cc12` [Example I-494], the IC50 was above 100000 nM.

For `CCOc1ccncc1-c1cc(C2=CCCN(C(=O)CCn3ccnn3)C2)c(F)c2[nH]c(C(=O)N3CCN(c4nccnc4OC)CC3)cc12` [Example I-478], the IC50 was below 100 nM.

For `COc1ccccc1-c1cc(C2=CCCN(C(=O)CCn3ccnn3)C2)c(F)c2[nH]c(C(=O)N3CCN(c4cn(C)c(=O)n(C)c4=O)CC3)cc12` [Example I-949], the IC50 was below 100 nM.

For `COc1ccncc1-c1cc(C2=CCCN(C(=O)CCn3ccnn3)C2)c(F)c2[nH]c(C(=O)N3CC=C(c4ncccc4OC)CC3)cc12` [Example I-452], the IC50 is above 100000 nM.

On to `CCn1c(N2CCN(C(=O)c3cc4c(-c5ccccc5OC)cc(C5=CCCN(C(=O)CCn6ccnn6)C5)c(F)c4[nH]3)CC2)nc2ccccc21` [Example I-942], for which the IC50 was below 100 nM.

In the case of `CCc1cc(CC)c(-c2cc(C3=CCCN(C(=O)CCn4cccn4)C3)c(F)c3[nH]c(C(=O)N4CCN(c5nc(C)c(F)cc5OC)CC4)cc23)cn1` [Example I-741], the half-maximal inhibitory concentration (IC50) fell in the range of 100 to 1000 nM.

`COc1cc(F)cnc1N1CCN(C(=O)c2cc3c(-c4ccc(N5C[C@@H](C)O[C@@H](C)C5)nc4)cc(C4=CCCN(C(=O)CCn5ccnn5)C4)c(F)c3[nH]2)CC1` [Example I-1138]: the IC50 was below 100 nM.

Regarding `COc1ccccc1-c1cc(C2=CCCN(C(=O)CCn3ccnn3)C2)c(F)c2[nH]c(C(=O)N3CCN(c4ncc(C#N)cc4OC)CC3)cc12` [Example I-940], the IC50 is below 100 nM.

Take `COc1cc(F)cnc1N1CCN(C(=O)c2cc3c(C(F)F)cc(C4=CCCN(C(=O)CCn5ccnn5)C4)c(F)c3[nH]2)CC1` [Example I-532]: the IC50 was below 100 nM.

For `COc1ccncc1-c1cc(C2=CCCN(C(C)=O)C2)c(F)c2[nH]c(C(=O)N3Cc4cnn(C)c4C3)cc12` [Example I-701], the IC50 lay in the range of 10000 to 100000 nM.

Regarding `CCOC(=O)CC(=O)N1CCC=C(c2cc3cc(C(=O)N4CCN(c5ncc(F)cc5OC)CC4)cc(-c4ccc(C)nc4CC)c3n2CC2CC2)C1` [Example I-1173], the IC50 lay within 100 to 1000 nM.

`CCCCCCc1cc(C2=CCCN(C(=O)CCn3ccnn3)C2)c(F)c2[nH]c(C(=O)N3CCN(c4ncc(F)cc4OC)CC3)cc12` [Example I-695]: the IC50 is above 100000 nM.

As to `CCn1nccc1-c1cc(C(=O)N2Cc3cnn(CC)c3C2)cc2cc(C3=CCCN(C(C)=O)C3)n(CC3CC3)c12` [Example I-1045], the IC50 is 100 to 1000 nM.

Take `CCn1ncc2c1CN(C(=O)c1cc(C3CC3)c3c(c1)cc(C1=CCCN(C(=O)CCn4ccnn4)C1)n3CC1CC1)C2` [Example I-768]: the IC50 was above 100000 nM.

With `Cc1ccccc1-c1cc(C2=CCCN(C(=O)CCn3ccnn3)C2)cc2cc(C(=O)N(C)C)oc12` [Example I-1086], the IC50 was below 100 nM.

Regarding `COc1cc(F)cnc1N1CCN(C(=O)c2cc3c(-c4cc(C)ncc4C)cc(C4=CCCN(C(=O)CCn5ccnn5)C4)c(F)c3[nH]2)CC1` [Example I-646], the IC50 was below 100 nM.

As to `C[C@H](Cn1ccnn1)C(=O)N1CCC=C(c2ccc3oc(C(=O)N(C)C)cc3c2)C1` (single isomer, unassigned) [Example I-818], the IC50 was in the range of 100 to 1000 nM.

On to `COC(=O)CC(=O)N1CCC=C(c2cc3cc(C(=O)N4Cc5cnn(C)c5C4)cc(-c4cccnc4OC)c3n2CC2CC2)C1` [Example I-795], for which the concentration for half-maximal inhibition (IC50) was above 100000 nM.

For the molecule `COc1cc(F)c(F)cc1-c1cc(C2=CCCN(C(=O)CCn3ccnn3)C2)c(F)c2[nH]c(C(=O)N3CCN(C4CC4)CC3)cc12` [Example I-604], the IC50 was below 100 nM.

In the case of `COc1ccccc1-c1cc(C2=CCCN(C(=O)CCn3ccnn3)C2)c(F)c2[nH]c(C(=O)N3CCN(c4cccc(C(F)(F)F)n4)CC3)cc12` [Example I-937], the IC50 lay within 100 to 1000 nM.

In the case of `COc1cc(F)cnc1N1CCN(C(=O)c2cc3c(-c4cccc5cnccc45)cc(C4=CCCN(C(=O)CCn5ccnn5)C4)c(F)c3[nH]2)CC1` [Example I-1119], the IC50 is below 100 nM.

Consider `CNc1ccc(-c2cc(C3=CCCN(C(C)=O)C3)c(F)c3[nH]c(C(=O)N(C)C)cc23)c(OC)c1` [Example I-1092], for which the IC50 was below 100 nM.

Consider `COc1ccccc1-c1cc(C2=CCCN(C(=O)[C@H]3Cc4ccccc4CN3C=O)C2)cc2cc(C(=O)N(C)C)oc12` [Example I-839], for which the IC50 is below 100 nM.

With `CCOc1cccnc1N1CCN(C(=O)c2cc3c(-c4ccccc4OC)cc(C4=CCCN(C(=O)CCn5ccnn5)C4)c(F)c3[nH]2)CC1` [Example I-335], the IC50 was below 100 nM.

For `COc1ccccc1-c1cc(C2=CCCN(C(=O)CCn3ccnn3)C2)c(F)c2[nH]c(C(=O)N3CCN(c4ccnc5c4CC(=O)N5)CC3)cc12` [Example I-914], the half-maximal inhibitory concentration (IC50) is below 100 nM.

`COc1cc(C)ncc1-c1cc(C2=CCCN(C(=O)CCn3ccnn3)C2)c(F)c2[nH]c(C(=O)N3CCN(c4ncccc4OC)CC3)cc12` [Example I-570]: the half-inhibitory concentration (IC50) was below 100 nM.

Consider `CCc1nc(C)ccc1-c1cc(C(=O)N2CCN(c3ncc(F)cc3OC)CC2)cc2cc(C3=CCCN(C(=O)CCn4ccnn4)C3)n(CC3CC3)c12` [Example I-517], for which the IC50 was below 100 nM.

For the molecule `COc1ccccc1-c1cc(C2=CCCN(C(=O)CCn3ccnn3)C2)c(F)c2[nH]c(C(=O)N3CCN(c4ccccc4OC(F)(F)F)CC3)cc12` [Example I-420], the IC50 lay within 100 to 1000 nM.

Regarding `CC(=O)N1CCN(c2cc(C3=CCCN(C(=O)CCn4ccnn4)C3)cc3cc(C(=O)N(C)C)oc23)CC1` [Example I-1186], the concentration for half-maximal inhibition (IC50) is below 100 nM.

Consider `COc1cc(F)ccc1-c1cc(C2=CCCN(C(=O)CCn3ccnn3)C2)c(F)c2[nH]c(C(=O)N3CCN(c4ncc(F)cc4OC)CC3)cc12` [Example I-613], for which the IC50 was below 100 nM.

As to `COc1cccnc1N1CCN(C(=O)c2cc3c(C4CCC5(CCNCC5)CC4)cc(C4=CCCN(C(=O)CCn5ccnn5)C4)c(F)c3[nH]2)CC1` [Example I-698], the half-maximal inhibitory concentration (IC50) is 10000 to 100000 nM.

`CN(C)C(=O)c1cc2cc(C3=CCCN(C(=O)C(Cn4ccnn4)c4cccc(CO)c4)C3)ccc2o1` (stereo not shown) [Example I-833]: the IC50 fell in the range of 100 to 1000 nM.

With `CN(C)C(=O)c1cc2c(F)c(C3=CCCN(C(=O)C4Cc5ccccc5CN4C=O)C3)ccc2o1` (stereo not shown) [Example I-1192], the half-maximal inhibitory concentration (IC50) lay within 1000 to 10000 nM.

As for `CCOc1ccncc1-c1cc(C2=CCCN(C(=O)CCn3ccnn3)C2)c(F)c2[nH]c(C(=O)N3CCN(c4ccnnc4OC)CC3)cc12` [Example I-483], the IC50 is below 100 nM.

In the case of `CCC1=C(c2cc(C3=CCCN(C(=O)CCn4ccnn4)C3)c(F)c3[nH]c(C(=O)N4CCN(c5ncc(F)cc5OC)CC4)cc23)CNCC1` [Example I-743], the concentration for half-maximal inhibition (IC50) was below 100 nM.

Take `COc1cccc(N2CCN(C(=O)c3cc4c(-c5cccnc5OC)cc(C5=CCCN(C(=O)CCn6ccnn6)C5)c(F)c4[nH]3)CC2)n1` [Example I-606]: the IC50 was below 100 nM.

Consider `CCc1cnccc1-c1cc(C2=CCCN(C(C)=O)C2)c(F)c2[nH]c(C(=O)N3CCN(c4ncc(F)cc4OC)CC3)cc12` [Example I-706], for which the concentration for half-maximal inhibition (IC50) is 10000 to 100000 nM.

`COc1ccc(C)cc1-c1cc(C2=CCCN(C(=O)C3Cc4ccccc4CN3C=O)C2)cc2cc(C(=O)N(C)C)oc12` (racemic) [Example I-1196]: the half-inhibitory concentration (IC50) was below 100 nM.

Consider `COc1ccccc1-c1cc(C2=CCCN(C(=O)CCn3ccnn3)C2)cc2[nH]c(C(=O)N(C)C)cc12` [Example I-1054], for which the IC50 is below 100 nM.

Take `COc1cc(F)cnc1N1CCN(C(=O)c2cc3c(-c4cc(C)nc5ccccc45)cc(C4=CCCN(C(=O)CCn5ccnn5)C4)c(F)c3[nH]2)CC1` [Example I-630]: the IC50 was below 100 nM.

In the case of `COc1ccccc1-c1cc(C2=CCCN(C(=O)CCn3ccnn3)C2)c(F)c2[nH]c(C(=O)N3CCN(c4cc(C)cn5ncnc45)CC3)cc12` [Example I-950], the IC50 was below 100 nM.

As to `CN(C)C(=O)c1cc2cc(C3=CCCN(C(=O)CCn4ccnn4)C3)cc(-c3cccc4c3CN(C)C4=O)c2o1` [Example I-845], the IC50 was below 100 nM.

`COc1ccccc1-c1cc(C2=CCCN(C(=O)CCn3ccnn3)C2)c(F)c2[nH]c(C(=O)N(C)C3Cc4ccccc4C3)cc12` [Example I-978]: the 50% inhibitory concentration (IC50) lay in the range of 100 to 1000 nM.

Take `COc1cc(F)c(C)nc1N1CCN(C(=O)c2cc3c(-c4cnc(C)cc4C(C)C)cc(C4=CCCN(C(=O)CCn5ccnn5)C4)c(F)c3[nH]2)CC1` [Example I-740]: the IC50 was below 100 nM.

Regarding `CCc1cc(C)ncc1-c1cc(C2=CCCN(C(=O)CCc3nccs3)C2)c(F)c2[nH]c(C(=O)N3CCN(c4ncc(F)cc4OC)CC3)cc12` [Example I-525], the 50% inhibitory concentration (IC50) is below 100 nM.

Turning to `COc1cc(Cl)cnc1N1CCN(C(=O)c2cc3c(-c4cccnc4OC)cc(C4=CCCN(C(=O)CCn5ccnn5)C4)c(F)c3[nH]2)CC1` [Example I-460], the IC50 was below 100 nM.

As a reminder, the IC50 is the point on the concentration scale where inhibition reaches its midpoint.
